20 molecules from ChEMBL document CHEMBL1201862, “PubChem BioAssay data set” (2004) can be followed below.

The source made the active and inactive calls.

Among the targets are Cytochrome P450 3A4 (Homo sapiens, UniProt P08684); Cytochrome P450 2D6 (Homo sapiens, UniProt P10635); Cytochrome P450 2C9 (Homo sapiens, UniProt P11712).
For a further test, the target named is Cytochrome P450 2C19 (Homo sapiens, UniProt P33261). The test is described as follows: Cytochrome panel assay with activity outcomes. Panel member name: p450-cyp2c19 Compounds with AC50 equal or less than 10 uM are considered active. To be noted: read-out: AC50. The class given is functional.
Sequence of Cytochrome P450 2C19 (P33261 whole entry): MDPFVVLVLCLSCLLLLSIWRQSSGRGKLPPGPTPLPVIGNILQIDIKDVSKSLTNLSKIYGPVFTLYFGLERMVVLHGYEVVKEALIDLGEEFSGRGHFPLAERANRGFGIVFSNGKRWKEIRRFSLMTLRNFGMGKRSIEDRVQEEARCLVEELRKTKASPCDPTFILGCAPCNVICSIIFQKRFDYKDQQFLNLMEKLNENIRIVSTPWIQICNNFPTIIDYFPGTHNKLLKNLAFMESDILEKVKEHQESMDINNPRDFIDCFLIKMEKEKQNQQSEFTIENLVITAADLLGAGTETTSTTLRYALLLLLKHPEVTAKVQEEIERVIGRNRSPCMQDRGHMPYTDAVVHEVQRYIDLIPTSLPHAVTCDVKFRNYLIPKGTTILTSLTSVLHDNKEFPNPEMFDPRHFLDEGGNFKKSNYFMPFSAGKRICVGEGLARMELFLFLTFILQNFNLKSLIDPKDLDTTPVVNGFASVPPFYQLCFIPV
In test [1] the target is T1, Heat shock factor protein 1 (Mus musculus, UniProt P38532).
T1 sequence (P38532 whole entry): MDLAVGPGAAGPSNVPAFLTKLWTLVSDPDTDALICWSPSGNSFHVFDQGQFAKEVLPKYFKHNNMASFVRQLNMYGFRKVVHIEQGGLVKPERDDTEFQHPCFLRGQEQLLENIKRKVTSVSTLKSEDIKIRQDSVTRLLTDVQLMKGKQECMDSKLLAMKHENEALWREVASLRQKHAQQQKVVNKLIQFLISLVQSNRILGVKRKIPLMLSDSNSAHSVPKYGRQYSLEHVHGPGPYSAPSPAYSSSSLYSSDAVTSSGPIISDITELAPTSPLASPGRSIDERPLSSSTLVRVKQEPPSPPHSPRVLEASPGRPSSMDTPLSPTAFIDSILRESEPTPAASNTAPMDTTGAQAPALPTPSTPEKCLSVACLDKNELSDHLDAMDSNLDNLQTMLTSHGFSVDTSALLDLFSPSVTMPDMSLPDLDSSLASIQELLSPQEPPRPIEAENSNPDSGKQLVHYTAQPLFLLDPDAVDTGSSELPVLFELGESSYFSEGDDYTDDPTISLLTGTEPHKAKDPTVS
The test is described as follows: enhancement of HSF1-driven luciferase signal – cell-based, NIH3T3, luminescence, dose retest, confirmation (AID 435004).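 Further: stress induced by proteasome inhibitor MG132 added 30 min after compound; luciferase reporter driven by HSF1 response element in NIH3T3 cells; actives raise luminescence as potentiators of the MG132 stress response.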 The test is classed as functional.

As usually defined, the AC50 is the concentration at which the activity in the assay is half-maximal. Broadly, the EC50 is the concentration at which the effect is half-maximal.

Sequence of Cytochrome P450 2D6 (P10635 whole entry): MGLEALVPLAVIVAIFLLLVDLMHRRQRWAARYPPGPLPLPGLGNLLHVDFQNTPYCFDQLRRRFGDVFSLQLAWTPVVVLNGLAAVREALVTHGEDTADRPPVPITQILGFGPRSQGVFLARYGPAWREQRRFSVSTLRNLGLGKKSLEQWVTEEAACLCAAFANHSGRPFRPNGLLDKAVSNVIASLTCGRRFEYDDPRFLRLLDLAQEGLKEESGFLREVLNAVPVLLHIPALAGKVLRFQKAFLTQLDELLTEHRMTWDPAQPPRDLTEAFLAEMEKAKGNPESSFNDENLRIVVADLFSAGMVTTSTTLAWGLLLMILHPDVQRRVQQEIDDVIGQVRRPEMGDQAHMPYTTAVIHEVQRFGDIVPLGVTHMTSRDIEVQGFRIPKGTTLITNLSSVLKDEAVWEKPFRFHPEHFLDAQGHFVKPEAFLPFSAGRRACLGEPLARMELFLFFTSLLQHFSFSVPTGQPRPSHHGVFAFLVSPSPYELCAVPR
Sequence of Cytochrome P450 2C9 (P11712 whole entry): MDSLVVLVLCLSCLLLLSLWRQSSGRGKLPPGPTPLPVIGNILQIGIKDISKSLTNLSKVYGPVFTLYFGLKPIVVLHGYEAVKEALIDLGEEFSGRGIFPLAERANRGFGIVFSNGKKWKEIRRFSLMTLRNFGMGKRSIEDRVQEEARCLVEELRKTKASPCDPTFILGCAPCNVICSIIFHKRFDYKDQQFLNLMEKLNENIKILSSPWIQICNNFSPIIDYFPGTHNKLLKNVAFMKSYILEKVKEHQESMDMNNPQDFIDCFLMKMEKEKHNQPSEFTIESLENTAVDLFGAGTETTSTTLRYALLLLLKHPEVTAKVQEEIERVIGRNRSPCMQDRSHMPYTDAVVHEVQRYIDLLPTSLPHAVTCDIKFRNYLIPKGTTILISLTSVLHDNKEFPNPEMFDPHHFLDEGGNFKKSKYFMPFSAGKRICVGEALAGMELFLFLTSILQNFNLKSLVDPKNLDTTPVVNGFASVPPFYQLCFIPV
Sequence of Cytochrome P450 3A4 (P08684 whole entry): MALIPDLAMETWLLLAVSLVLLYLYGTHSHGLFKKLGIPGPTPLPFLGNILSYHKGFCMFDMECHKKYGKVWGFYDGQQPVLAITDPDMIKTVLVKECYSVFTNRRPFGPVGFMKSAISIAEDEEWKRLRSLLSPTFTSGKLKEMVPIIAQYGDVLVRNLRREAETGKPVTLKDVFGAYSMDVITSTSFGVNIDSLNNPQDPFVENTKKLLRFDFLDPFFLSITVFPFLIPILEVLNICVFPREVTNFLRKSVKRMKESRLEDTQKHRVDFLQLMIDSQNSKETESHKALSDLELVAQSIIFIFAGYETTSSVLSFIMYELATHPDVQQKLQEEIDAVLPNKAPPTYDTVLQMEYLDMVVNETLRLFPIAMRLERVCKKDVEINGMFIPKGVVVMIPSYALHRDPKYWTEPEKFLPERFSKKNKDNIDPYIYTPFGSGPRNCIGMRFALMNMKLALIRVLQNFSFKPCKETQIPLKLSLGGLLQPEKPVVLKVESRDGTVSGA

`COC(=O)c1ccc(C(NC(=O)c2ccccc2)[C@]2(C)C[C@H]2C2CCCCC2)cc1` (stereo partly drawn): the AC50 at Cytochrome P450 3A4 is 6.31 µM (inconclusive).

Turning to `Cn1c(-c2sc(=S)n(-c3ccccc3)c2N)nc2ccccc21`, the AC50 at Cytochrome P450 2D6 is 1.26 µM (inconclusive).

In the case of `O=C(N/N=C/c1c[nH]c2ccc(Br)cc12)c1ccn(Cc2ccc(Cl)cc2)n1`, the AC50 is 3.98 µM (inconclusive) on Cytochrome P450 3A4 and 39.8 µM (inconclusive) at Cytochrome P450 2C9.

On to `CN(C)Cc1cc(C(F)(F)F)ccc1C(O)(c1ccccc1)c1ccccc1`, for which, at Cytochrome P450 2D6, the AC50 is 3.16 µM (inconclusive).

As for `CC1=C(Nc2c(C)cc(O)cc2O)C(=O)C=c2oc3c(c21)C(C)=C(Nc1c(C)cc(O)cc1O)C(=O)C=3`, the AC50 on Cytochrome P450 2D6 was 2.51 µM (inconclusive).

As for `CC(=O)O[C@]12CC[N@+]3(C)CCCC[C@@H]3[C-]1Nc1ccccc12`, the AC50 on Cytochrome P450 2D6 is 3.16 µM (inconclusive).

Regarding `CCC/C=C(\CCC)C(NC(=O)c1ccc(C(F)(F)F)cc1)c1ccc(C(F)(F)F)cc1` (stereo not drawn), the AC50 at Cytochrome P450 3A4 was 10 µM (inconclusive).

For the molecule `COc1cccc(-c2ccc3ncnc(N4CCN(C)CC4)c3c2)c1`, the half-maximal activity concentration (AC50) was 39.8 µM (inconclusive) at Cytochrome P450 2D6 and 31.6 µM (inconclusive) at Cytochrome P450 2C19.

As to `O=C(c1ccc(Cl)c(Cl)c1)c1cc(-c2ccccn2)c(N2CCOCC2)s1`, the AC50 at Cytochrome P450 2D6 is 10 µM (inconclusive).

Turning to `N#Cc1cccc(-c2cncnc2-n2ccnc2)c1`, the AC50 on Cytochrome P450 2D6 and at Cytochrome P450 2C19 was 39.8 µM (inconclusive) in each case.

`CN1CCN(c2ccnc(-c3ccoc3)n2)CC1`: the AC50 on Cytochrome P450 2D6 is 39.8 µM (inconclusive).

As for `O=C(O)c1c(Br)c(Br)c(Br)c(Br)c1C1c2ccc(O)cc2Oc2cc(O)ccc21`, the AC50 is 3.98 µM (inconclusive) on Cytochrome P450 3A4 and 7.94 µM (inconclusive) on Cytochrome P450 2C9.

With `CN(C)CC(C)(C)CN1c2ccccc2Sc2ccccc21`, the figures for the AC50 at Cytochrome P450 2C19 and on Cytochrome P450 3A4 were 2 µM (inconclusive) and 5.01 µM (inconclusive), respectively.

With `Cc1ccc(S(=O)(=O)N[C@@H](CCc2ccccc2)CC(=O)C(C)(C)C)cc1`, the AC50 on Cytochrome P450 2D6 is 3.16 µM (inconclusive).

With `Cn1cccc1C(=O)N1CCC2(CCCN(Cc3ccccc3)C2)CC1`, the AC50 at Cytochrome P450 3A4 was 31.6 µM (inconclusive).

As for `CSc1nc(Sc2cccc(Cl)c2)c2ccccc2n1`, on Cytochrome P450 3A4, the AC50 was 35.5 µM (inconclusive).

For `CCc1ccccc1N=C(S)NC1CC2CCC(C1)N2Cc1ccco1` (stereo not drawn), the results for the AC50 at Cytochrome P450 2D6 and at Cytochrome P450 3A4 were 14.1 µM (inconclusive) and 20 µM (inconclusive), respectively.

`COc1ccc(C2CC3=Nc4ncnn4C(c4ccccc4)C3=C(O)C2)cc1` (stereo not drawn): in test [1], the EC50 was > 260 µM (inactive).

Regarding `CCNc1ncc2ncc(=O)n(Cc3cccs3)c2n1`, the figures for the AC50 on Cytochrome P450 2C19, on Cytochrome P450 3A4 and at Cytochrome P450 2C9 were 20 µM (inconclusive), 20 µM (inconclusive) and 15.8 µM (inconclusive), respectively.

Take `COc1ccc(C)cc1NC(=O)C/C(C)=N/NC(=O)Cc1cccc2ccccc12`: the EC50 in test [1] is > 260 µM (inactive).
